{
  "source": "paper PMC8026246",
  "about": "(Bioorganic Chemistry, 2021)",
  "biological_target": "SARS-CoV-2 M^pro (Severe acute respiratory syndrome coronavirus 2, UniProt P0DTD1)",
  "assay_type": "binding",
  "conditions": "pH 6.8",
  "data": [
    {"smiles": "CCN(CC)c1ccc2c(-c3ccccc3C(=O)O)c3ccc(=[N+](CC)CC)cc-3oc2c1", "note": "[rhodamine B]", "values": [
      {"measurement": "Fluorescent labeling of M^pro (gel, UV 365 nm)", "value": "could not label M^pro"}
    ]}
  ]
}
